According to patent US11484539B2, “Compounds and their uses for alleviating menopause-associated symptoms” (Estetra SPRL, priority 2018, dated 2022):

Test system: post-menopausal women
Test: Weekly frequency of moderate to severe VMS, dose-finding study
Type: in vivo
Conditions: for Difference with placebo, LS adjusted mean, absolute change in weekly frequency of moderate to severe VMS / Difference with placebo, LS adjusted mean, relative change in weekly frequency of moderate to severe VMS: 2.5 mg E4 vs placebo
From the text: To determine the Minimum Effective Dose (MED), firstly the selection criteria required that patients presented at least 7 moderate to severe VMS/day or at least 50 moderate to severe VMS/week in the week preceding randomization. Secondly, a placebo group was included in a double-blind fashion. Thirdly, the total patient number was such that statistical significance could be obtained between separate arms of the study. Fourthly, the absolute change from baseline in weekly frequency of moderate to severe VMS was taken into account. An analysis of covariance (ANCOVA) was performed based on the untransformed change in weekly frequency of moderate to severe VMS from baseline. Finally, the change in severity from baseline was evaluated. For this, the Severity Scoring System of VMS was documented by the subjects as follows: • a score of Mild (1) for a sensation of heat without sweating; • a score of Moderate (2) for a sensation of heat with sweating/the subject is able to continue activity; and • a score of Severe (3) for a sensation of heat with sweating/which causes cessation of activity.
Enrolment was approximately 18 months. Individual subject participation was up to 27 weeks: up to 6 weeks pre-screening and washout, up to 4 weeks screening and run-in period, up to 91 days (13 weeks) of E4/placebo treatment followed by 2 weeks (14 days) of progestin therapy and a Follow up visit 1 week after completion of progestin therapy in non-hysterectomised subjects only.
To define the minimum effective dose (MED) of the oral dose of E4 by evaluating changes in frequency and in severity of moderate to severe vasomotor symptoms (VMS).
This was a prospective, multicentre, randomised, placebo-controlled, double-blinded, dose-finding study.
Eligible subjects were hysterectomised and non-hysterectomised post-menopausal women aged 40 to 65 years, inclusive, presenting at least 7 moderate to severe hot flushes/day or at least 50 moderate to severe hot flushes/week.
The subjects have met all of the following inclusion criteria at the randomization visit. These criteria were assessed during the screening period: • 1. Women aged 40 to 65 years, inclusive, presenting at least 7 moderate to severe hot flushes/day or at least 50 moderate to severe hot flushes/week in the week preceding randomization. • 2. Body Mass Index (BMI) between 18.0 and 35.0 kg/m^2, inclusive. • 3. Post-menopausal status defined as levels of follicle stimulating hormone (FSH) >40 IU/L and: • amenorrhoea for at least 12 consecutive months or, • amenorrhoea for at least 6 months with estradiol (E2)<20 pg/mL or, • at least 6 weeks post-surgical bilateral oophorectomy with or without hysterectomy with a copy of the pathology report or a statement on letterhead from the subject's physician documenting both ovaries were removed is required. • 4. For non-hysterectomised women: intact uterus with bi-layer endometrial thickness […] on TVUS. • 5. Negative pregnancy test. • 6. Good physical and mental health, in the judgement of the Principal Investigator (PI), on the basis of medical, surgical and gynaecological history, physical examination, gynaecological examination, clinical laboratory, and vital signs. • 7. Subject has provided signed and dated written informed consent before admission to the study. • 8. Subject is able to understand and comply with the protocol requirements, instructions, and protocol-stated restrictions. Exclusion Criteria:
All treatments (Estetrol, hereinafter, E4, [2.5 mg, 5 mg, 10 mg, 15 mg] capsule) were administered once daily (QD) per os for at least 12 consecutive weeks until the last biological assessments (Day 91 maximum) had been performed.
In order to analyse the data recorded in this study, treatment groups have been compared using an ANCOVA (analysis of covariance) with respect to the change in weekly frequency of moderate to severe VMS from baseline to weeks 4 and 12. […]

[1] = 2.5 mg E4, week 4, ANCOVA with study centre
[2] = 2.5 mg E4, week 4, without site effect
[3] = 2.5 mg E4, week 12, ANCOVA with study centre
[4] = 2.5 mg E4, week 12, without site effect
[5] = week 4, ANCOVA with study centre
[6] = week 12, ANCOVA with study centre
[7] = 5 mg E4, week 4, ANCOVA with study centre
[8] = 5 mg E4, week 4, without site effect
[9] = 5 mg E4, week 12, ANCOVA with study centre
[10] = 5 mg E4, week 12, without site effect

Q: Which “LS adjusted mean change from baseline in weekly frequency of moderate to severe VMS” value (shortened to “LS adjusted mean change from baseline”) [1] does the source give for `C[C@]12CC[C@@H]3c4ccc(O)cc4CC[C@H]3[C@@H]1[C@@H](O)[C@@H](O)[C@@H]2O` [E4, 1,3,5 (10)-estratrien-3,15alpha,16alpha,17beta-tetrol] here?
A: −32.26

Q: What about the LS adjusted mean relative change (%) from baseline in weekly frequency of moderate to severe VMS [1] of the same molecule?
A: -48.5%

Q: And the “LS adjusted mean change from baseline” value [2]?
A: −32.68

Q: What about the LS adjusted mean relative change (%) from baseline in weekly frequency of moderate to severe VMS [2] of the same molecule?
A: -49.5%

Q: What about the “LS adjusted mean change from baseline” value [3] of the same molecule?
A: −40.13

Q: What about the LS adjusted mean relative change (%) from baseline in weekly frequency of moderate to severe VMS [3] of the same molecule?
A: -60.6%

Q: And the “LS adjusted mean change from baseline” value [4]?
A: −40.68

Q: And the LS adjusted mean relative change (%) from baseline in weekly frequency of moderate to severe VMS [4]?
A: -62.2%

Q: What about the “Mean change from baseline in weekly frequency of moderate to severe VMS” value (2.5 mg E4 QD per os, week 1) of the same molecule?
A: −17.28

Q: What about the “Relative change (% from baseline) in weekly frequency of moderate to severe VMS, mean” value (“Relative change (% from baseline)” below) (2.5 mg E4 QD per os, week 1) of the same molecule?
A: −23%

Q: And the “Mean change from baseline in weekly frequency of moderate to severe VMS” value (2.5 mg E4 QD per os, week 2)?
A: −25.10

Q: And the “Relative change (% from baseline)” value (2.5 mg E4 QD per os, week 2)?
A: −34%

Q: And the “Mean change from baseline in weekly frequency of moderate to severe VMS” value (2.5 mg E4 QD per os, week 3)?
A: −32.46

Q: What about the “Relative change (% from baseline)” value (2.5 mg E4 QD per os, week 3) of the same molecule?
A: −44%

Q: What about the “Mean change from baseline in weekly frequency of moderate to severe VMS” value (2.5 mg E4 QD per os, week 4) of the same molecule?
A: −35.89

Q: And the “Relative change (% from baseline)” value (2.5 mg E4 QD per os, week 4)?
A: −49%

Q: What about the “Mean change from baseline in weekly frequency of moderate to severe VMS” value (2.5 mg E4 QD per os, week 5) of the same molecule?
A: −37.16

Q: And the “Relative change (% from baseline)” value (2.5 mg E4 QD per os, week 5)?
A: −50%

Q: What about the “Mean change from baseline in weekly frequency of moderate to severe VMS” value (2.5 mg E4 QD per os, week 6) of the same molecule?
A: −39.98

Q: What about the “Relative change (% from baseline)” value (2.5 mg E4 QD per os, week 6) of the same molecule?
A: −54%

Q: What about the “Mean change from baseline in weekly frequency of moderate to severe VMS” value (2.5 mg E4 QD per os, week 7) of the same molecule?
A: −42.44

Q: And the “Relative change (% from baseline)” value (2.5 mg E4 QD per os, week 7)?
A: −57%

Q: And the “Mean change from baseline in weekly frequency of moderate to severe VMS” value (2.5 mg E4 QD per os, week 8)?
A: −43.62

Q: And the “Relative change (% from baseline)” value (2.5 mg E4 QD per os, week 8)?
A: −58%

Q: And the “Mean change from baseline in weekly frequency of moderate to severe VMS” value (2.5 mg E4 QD per os, week 9)?
A: −45.19

Q: What about the “Relative change (% from baseline)” value (2.5 mg E4 QD per os, week 9) of the same molecule?
A: −61%

Q: And the “Mean change from baseline in weekly frequency of moderate to severe VMS” value (2.5 mg E4 QD per os, week 10)?
A: −45.54

Q: And the “Relative change (% from baseline)” value (2.5 mg E4 QD per os, week 10)?
A: −61%

Q: And the “Mean change from baseline in weekly frequency of moderate to severe VMS” value (2.5 mg E4 QD per os, week 11)?
A: −44.74

Q: What about the “Relative change (% from baseline)” value (2.5 mg E4 QD per os, week 11) of the same molecule?
A: −60%

Q: What about the “Mean change from baseline in weekly frequency of moderate to severe VMS” value (2.5 mg E4 QD per os, week 12) of the same molecule?
A: −45.04

Q: And the “Relative change (% from baseline)” value (2.5 mg E4 QD per os, week 12)?
A: −61%

Q: What about the “Difference with placebo, LS adjusted mean, absolute change in weekly frequency of moderate to severe VMS” value [5] of the same molecule?
A: 1.536

Q: What about the “Difference with placebo, LS adjusted mean, relative change in weekly frequency of moderate to severe VMS” value [5] of the same molecule?
A: 0.005984

Q: And the “Difference with placebo, LS adjusted mean, absolute change in weekly frequency of moderate to severe VMS” value (week 4, without site effect)?
A: 0.9721

Q: What about the “Difference with placebo, LS adjusted mean, relative change in weekly frequency of moderate to severe VMS” value (week 4, without site effect) of the same molecule?
A: −0.005455

Q: What about the “Difference with placebo, LS adjusted mean, absolute change in weekly frequency of moderate to severe VMS” value [6] of the same molecule?
A: 3.603

Q: What about the “Difference with placebo, LS adjusted mean, relative change in weekly frequency of moderate to severe VMS” value [6] of the same molecule?
A: 0.03673

Q: What about the “Difference with placebo, LS adjusted mean, absolute change in weekly frequency of moderate to severe VMS” value (week 12, without site effect) of the same molecule?
A: 3.246

Q: What about the “Difference with placebo, LS adjusted mean, relative change in weekly frequency of moderate to severe VMS” value (week 12, without site effect) of the same molecule?
A: 0.02897

Q: What about the “LS adjusted mean change from baseline” value [7] of the same molecule?
A: −27.44

Q: And the LS adjusted mean relative change (%) from baseline in weekly frequency of moderate to severe VMS [7]?
A: -42.2%

Q: And the “LS adjusted mean change from baseline” value [8]?
A: −27.87

Q: And the LS adjusted mean relative change (%) from baseline in weekly frequency of moderate to severe VMS [8]?
A: -43.1%

Q: And the “LS adjusted mean change from baseline” value [9]?
A: −40.68

Q: And the LS adjusted mean relative change (%) from baseline in weekly frequency of moderate to severe VMS [9]?
A: -60.3%

Q: What about the “LS adjusted mean change from baseline” value [10] of the same molecule?
A: −41.01

Q: What about the LS adjusted mean relative change (%) from baseline in weekly frequency of moderate to severe VMS [10] of the same molecule?
A: -61.4%

Q: What about the “Mean change from baseline in weekly frequency of moderate to severe VMS” value (5 mg E4 QD per os, week 1) of the same molecule?
A: −15.04

Q: And the “Relative change (% from baseline)” value (5 mg E4 QD per os, week 1)?
A: −23%

Q: What about the “Mean change from baseline in weekly frequency of moderate to severe VMS” value (5 mg E4 QD per os, week 2) of the same molecule?
A: −21.68
